What follows are compounds tested against T1, HPK1 (Homo sapiens, UniProt Q92918) (assay: HPK1 biochemical enzyme assay (microfluidic mobility shift assay)). Settings: 1000 uM (1 mM) ATP; Caliper mobility shift; 1.5 nM HPK1; 30 min preincubation; read-out: HPK1 1000UMATP caliper IC50.
T1 construct: purchased Invitrogen
Protocol: Example 33. HPK1 Biochemical Enzyme Assay
HPK1 biochemical enzyme assay: HPK1 enzyme inhibition was measured using a microfluidic mobility shift assay. Reactions were performed in a 384-well plate, containing 1.5 nM HPK1 (Invitrogen), in assay buffer (Carna Biosciences; pH 7.4). Test compounds were titrated in ten point curves (top final assay concentration 3 μM), and preincubated with enzyme/substrate mix for 30 min prior to initiation of the reaction by addition of ATP (1 mM final concentration) and substrate (1 μM final concentration; Carna Biosciences) diluted in assay buffer supplemented by MgCl2 (final assay concentration of 5 mM). Following 60 min incubation at RT, the reaction was terminated by addition of 60 μl/well termination buffer (Carna Biosciences) and signal determination using a Caliper EZ Reader (Perkin Elmer, UK).
The compound numbers correspond to the compound numbers in Table 1. Compounds having an activity designated as “A” provided an IC50≤100 nM; compounds having an activity designated as “B” provided an IC50>100 nM and ≤1,000 nM; compounds having an activity designated as “C” provided an IC50>1,000 nM.

T1 sequence (Q92918 whole entry): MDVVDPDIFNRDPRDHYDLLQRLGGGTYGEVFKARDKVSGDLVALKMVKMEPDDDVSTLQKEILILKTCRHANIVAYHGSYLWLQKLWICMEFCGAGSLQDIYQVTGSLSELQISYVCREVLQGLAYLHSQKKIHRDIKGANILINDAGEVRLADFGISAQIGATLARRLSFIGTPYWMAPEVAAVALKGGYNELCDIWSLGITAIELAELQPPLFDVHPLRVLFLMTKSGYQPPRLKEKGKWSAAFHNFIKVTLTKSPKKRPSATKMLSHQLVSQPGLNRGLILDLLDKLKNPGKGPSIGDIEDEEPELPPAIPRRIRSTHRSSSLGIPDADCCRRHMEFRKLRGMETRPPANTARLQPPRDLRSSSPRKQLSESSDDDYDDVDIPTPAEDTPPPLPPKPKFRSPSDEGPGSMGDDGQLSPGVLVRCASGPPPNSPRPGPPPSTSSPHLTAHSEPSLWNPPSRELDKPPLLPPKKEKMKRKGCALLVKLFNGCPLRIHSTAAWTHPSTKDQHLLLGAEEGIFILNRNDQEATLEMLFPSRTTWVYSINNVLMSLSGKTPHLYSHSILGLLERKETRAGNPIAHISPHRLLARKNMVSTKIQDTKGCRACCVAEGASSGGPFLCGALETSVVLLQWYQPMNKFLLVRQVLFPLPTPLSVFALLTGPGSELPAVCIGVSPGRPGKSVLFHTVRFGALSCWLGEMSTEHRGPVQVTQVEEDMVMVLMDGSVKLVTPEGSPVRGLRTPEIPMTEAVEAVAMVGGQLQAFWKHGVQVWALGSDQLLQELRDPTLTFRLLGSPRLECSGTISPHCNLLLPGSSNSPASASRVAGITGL

Row | IC50 [nM] | Compound
1 | ≤ 100 | COC1CCCN(C(=O)c2ccc(-c3cc(Nc4ccc(N5CCC(O)CC5)cn4)c4c(=O)[nH]ccc4n3)c(F)c2)C1 (stereo not shown) [I-133, 2-[2-fluoro-4-(3-methoxy-piperidine-1-carbonyl)phenyl]-4-[[5-(4-hydroxy-1-piperidyl)-2-pyridyl]amino]-6H-1,6-naphthyridin-5-one]
2 | ≤ 100 | CC(C)c1cc(Nc2ccc(N3CCOCC3)cn2)c2c(=O)[nH]ccc2n1 [I-22, 2-isopropyl-4-[(5-morpholino-2-pyridyl)amino]-6H-1,6-naphthyridin-5-one]
3 | ≤ 100 | O=C(c1ccc(-c2cc(Nc3ccc(N4CCC(O)CC4)cn3)c3c(=O)[nH]ccc3n2)c(F)c1)N1CCCC1 [I-115, 2-[2-fluoro-4-(pyrrolidine-1-carbonyl)phenyl]-4-[[5-(4-hydroxy-1-piperidyl)-2-pyridyl]amino]-6H-1,6-naphthyridin-5-one]
4 | ≤ 100 | COC1CCN(C(=O)c2ccc(-c3cc(Nc4ccc(N5CCC(O)CC5)cn4)c4c(=O)[nH]ccc4n3)c(F)c2)CC1 [I-136, 2-[2-fluoro-4-(4-methoxy-piperidine-1-carbonyl)phenyl]-4-[[5-(4-hydroxy-1-piperidyl)-2-pyridyl]amino]-6H-1,6-naphthyridin-5-one]
5 | 100 to 1000 | O=C(c1ccc(-c2cc(Nc3ccc(N4CCC(O)CC4)cn3)c3c(=O)[nH]ccc3n2)c(F)c1)N1CC2CCC1CC2 [I-124, 2-[4-(3-azabicyclo [2.2.2]octane-3-carbonyl)-2-fluoro-phenyl]-4-[[5-(4-hydroxy-1-piperidyl)-2-pyridyl]amino]-6H-1,6-naphthyridin-5-one]
6 | ≤ 100 | O=c1[nH]ccc2nc(-c3cc4c(cc3F)C(N3CCOCC3)CC4)cc(Nc3ccc(N4CCC(O)CC4)cn3)c12 (stereo not shown) [I-259, 2-(6-fluoro-1-morphoino-indan-5-y)-4-[[5-(4-hydroxy-1-piperidy)-2-pyridy]amino]-6H-1,6-naphthyridin-5-one]
7 | 100 to 1000 | O=c1[nH]ccc2nc(N3CCCC3)cc(Nc3ccc(N4CCC(O)CC4)cn3)c12 [I-84, 4-[[5-(4-hydroxy-1-piperidyl)-2-pyridyl]amino]-2-pyrrolidin-yl-6H-1,6-naphthyridin-5-one]
8 | 100 to 1000 | NC(=O)c1ccc(-c2cc(Nc3ccc(N4CCC(O)CC4)cn3)c3c(=O)[nH]ccc3n2)c(F)c1 [I-72, 3-fluoro-4-[4-[[5-(4-hydroxy-1-piperidyl)-2-pyridyl]amino]-5-oxo-6H-1,6-naphthyridin-2-yl] benzamide]
9 | 100 to 1000 | O=c1[nH]ccc2nc(-c3cc4[nH]ccc4cc3F)cc(Nc3ccc(N4CCC(O)CC4)cn3)c12 [I-118, 2-(5-fluoro-1H-indol-6-yl)-4-[[5-(4-hydroxy-1-piperidyl)-2-pyridyl]amino]-6H-1,6-naphthyridin-5-one]
10 | 100 to 1000 | COc1cc(F)c(-c2cc(Nc3ccc(N4CCC(O)CC4)cn3)c3c(=O)[nH]ccc3n2)cc1C [I-55, 2-(2-fluoro-4-methoxy-5-methyl-phenyl)-4-[[5-(4-hydroxy-1-piperidyl)-2-pyridyl]amino]-6H-1,6-naphthyridin-5-one]
11 | 100 to 1000 | CC(O)(c1cc(Nc2ccc(N3CCC(O)CC3)cn2)c2c(=O)[nH]ccc2n1)C(F)(F)F (stereo not shown) [I-77, 4-[[5-(4-hydroxy-1-piperidyl)-2-pyridyl]amino]-2-(2,2,2-trifluoro-1-hydroxy-1-methyl-ethyl)-6H-1,6-naphthyridin-5-one]
12 | 100 to 1000 | CC(C)c1ccc(F)c(-c2cc(Nc3ccc(N4CCC(O)CC4)cn3)c3c(=O)[nH]ccc3n2)c1 [I-48, 2-(2-fluoro-5-isopropyl-phenyl)-4-[[5-(4-hydroxy-1-piperidyl)-2-pyridyl]amino]-6H-1,6-naphthyridin-5-one]
13 | ≤ 100 | CC(=O)N1CCCC1c1ccc(F)c(-c2cc(Nc3ccc(N4CCC(O)CC4)cn3)c3c(=O)[nH]ccc3n2)c1 (stereo not shown) [I-248, 2-[5-(1-acetyl-pyrrolidin-2-yl)-2-fluoro-phenyl]-4-[[5-(4-hydroxy-1-piperidyl)-2-pyridyl]amino]-6H-1,6-naphthyridin-5-one]
14 | ≤ 100 | CC1(C(=O)Nc2ccc(-c3cc(Nc4ccc(N5CCC(O)CC5)cn4)c4c(=O)[nH]ccc4n3)c(F)c2)COC1 [I-205]
15 | 100 to 1000 | O=c1[nH]ccc2nc(-c3cc(C4CCC4)ccc3F)cc(Nc3ccc(N4CCC(O)CC4)cn3)c12 [I-97, 2-(5-cyclobutyl-2-fluoro-phenyl)-4-[[5-(4-hydroxy-1-piperidyl)-2-pyridyl]amino]-6H-naphthyridin-5-one]
16 | 100 to 1000 | Cc1c[nH]c(=O)c2c(Nc3ccc(N4CCC(O)CC4)cn3)ccnc12 [I-90, 4-[[5-(4-hydroxy-1-piperidyl)-2-pyridyl]amino]-8-methyl-6H-1,6-naphthyridin-5-one]
17 | ≤ 100 | O=C(C1CC1)N1CCC2(CCN(c3cc(Nc4ccc(N5CCC(O)CC5)cn4)c4c(=O)[nH]ccc4n3)CC2)C1 [I-233, 2-[2-(cyclopropanecarbonyl)-2,8-diazaspiro[4.5]decan-8-yl]-4-[[5-(4-hydroxy-1-piperidyl)-2-pyridyl]amino]-6H-1,6-naphthyridin-5-one]
18 | 100 to 1000 | CC1(C(=O)Nc2ccc(-c3cc(Nc4ccc(N5CCC(O)CC5)cn4)c4c(=O)[nH]ccc4n3)c(F)c2)CC1 [I-153]
19 | > 1000 | O=C(Nc1ccc(-c2cc(Nc3ccc(N4CCC(O)CC4)cn3)c3c(=O)[nH]ccc3n2)c(F)c1)C1CCCCC1 [I-111, N-[3-fluoro-4-[4-[[5-(4-hydroxy-1-piperidyl)-2-pyridyl]amino]-5-oxo-6H-1,6-naphthyridin-2-yl]phenyl] cyclohexane carboxamide]
20 | ≤ 100 | N#Cc1ccc(F)c(-c2cc(Nc3ccc(N4CCC(O)CC4)cn3)c3c(=O)[nH]ccc3n2)c1 [I-45, 4-fluoro-3-[4-[[5-(4-hydroxy-1-piperidyl)-2-pyridyl]amino]-5-oxo-6H-1,6-naphthyridin-2-yl] benzonitrile]
21 | ≤ 100 | O=C(Nc1ccc(-c2cc(Nc3ccc(C(=O)N4CCCC4)cc3)c3c(=O)[nH]ccc3n2)c(F)c1)C1CCCCC1 [I-160, N-[3-fluoro-4-[5-oxo-4-[4-(pyrrolidine-1-carbonyl)anilino]-6H-1,6-naphthyridin-2-yl]phenyl] cyclohexane carboxamide]
22 | 100 to 1000 | O=C(Nc1ccc(-c2cc(Nc3ccc(N4CCC(O)CC4)cn3)c3c(=O)[nH]ccc3n2)c(F)c1)[C@@H]1C[C@H]2CC[C@@H]1C2 (single isomer, unassigned) [I-269]
23 | ≤ 100 | CC(C)Oc1cc(-c2cc(Nc3ccc(N4CCC(O)CC4)cn3)c3c(=O)[nH]ccc3n2)c(F)cc1C(=O)N1CCCCC1 [I-186, 2-[2-fluoro-5-isopropoxy-4-(piperidine-1-carbonyl)phenyl]-4-[[5-(4-hydroxy-1-piperidyl)-2-pyridyl]amino]-6H-1,6-naphthyridin-5-one]
24 | 100 to 1000 | CC(C)c1cc(Nc2ccc(S(C)(=O)=O)cn2)c2c(=O)[nH]ccc2n1 [I-23, 2-isopropyl-4-[(5-methyl-sulfonyl-2-pyridyl)amino]-6H-1,6-naphthyridin-5-one]
25 | ≤ 100 | CN1CCN(c2ccc(Nc3cc(-c4ccc(C(=O)N5CC6C(C5)C6(F)F)cc4F)nc4cc[nH]c(=O)c34)nc2)CC1 (stereo not shown) [I-279, 2-[4-(6,6-difluoro-3-azabicyclo [3.1.0]hexane-3-carbonyl)-2-fluoro-phenyl]-4-[[5-(4-methyl-piperazin-1-yl)-2-pyridyl]amino]-6H-1,6-naphthyridin-5-one]
